From patent publication US20220054493A1, “INHIBITORS OF NGAL PROTEIN” (INSERM (INSTITUT NATIONAL DE LA SANTÉ ET DE LA RECHERCHE …, priority 2019, published 2022)

Tests used:
CaCo2 cell line = assay: Bi-CaCo2 permeability assay; type: in vitro ADME, human
Protocol: (§1) The Caco-2 Permeability assay uses an established method for predicting the in vivo absorption of drugs across the gut wall. The transport rate across the CaCo2 cell line is measured. This cell line has a human colon carcinoma origin and resembles to the intestinal epithelia (a polarised monolayer with microvilli and intercellular tight junctions).
(§2) Bidirectional transport (apical to basolateral (A-B) and basolateral to apical (B-A)) across the cell monolayer were determined allowing to calculate the efflux ratio (an indicator as to whether a compound undergoes active efflux).

Chemical stability = type: physicochemical
Protocol: (§3) Two specific toxicity assays have been performed to assess hepatoxicity and cardiotoxicity. Hepatotoxicity was evaluated in isolated hepatocytes from swiss mice and determined by the MTT colorimetric assay. Cardiotoxicity was evaluated using the commercially available Predictor hERG fluorescence polarization kit (Thermo Fisher Scientific). Several ADME assays have been carried out on the compounds generated throughout the project. The following experiments were undertaken: Stability in human microsomes, binding to human plasma protein, and CYP3A4 inhibition assay (Vivid CYP3A4 assay, Thermo Fisher Scientific). Physico-chemical properties were also assessed such as aqueous solubility and chemical stability.

Aqueous solubility = type: physicochemical
Protocol: as §3

human microsomes = assay: Stability in human microsomes; type: in vitro ADME
Protocol: as §3

[1] = Bi-CaCo2 permeability assay; type: in vitro ADME, human; conditions: human, Caco-2; efflux ratio
Protocol: as §1, §2

human plasma protein = assay: Binding to human plasma protein; type: in vitro ADME
Protocol: as §3

[2] = Binding to human plasma protein; type: in vitro ADME; conditions: human, human plasma protein; read-out: hPPB (converted)
Protocol: as §3

CYP3A4 = target: T1, CYP3A4 (Homo sapiens, UniProt P08684); assay: CYP3A4 inhibition assay (Vivid CYP3A4 assay); type: in vitro ADME
T1 construct: purchased Thermo Fisher Scientific
T1 sequence (P08684 whole entry): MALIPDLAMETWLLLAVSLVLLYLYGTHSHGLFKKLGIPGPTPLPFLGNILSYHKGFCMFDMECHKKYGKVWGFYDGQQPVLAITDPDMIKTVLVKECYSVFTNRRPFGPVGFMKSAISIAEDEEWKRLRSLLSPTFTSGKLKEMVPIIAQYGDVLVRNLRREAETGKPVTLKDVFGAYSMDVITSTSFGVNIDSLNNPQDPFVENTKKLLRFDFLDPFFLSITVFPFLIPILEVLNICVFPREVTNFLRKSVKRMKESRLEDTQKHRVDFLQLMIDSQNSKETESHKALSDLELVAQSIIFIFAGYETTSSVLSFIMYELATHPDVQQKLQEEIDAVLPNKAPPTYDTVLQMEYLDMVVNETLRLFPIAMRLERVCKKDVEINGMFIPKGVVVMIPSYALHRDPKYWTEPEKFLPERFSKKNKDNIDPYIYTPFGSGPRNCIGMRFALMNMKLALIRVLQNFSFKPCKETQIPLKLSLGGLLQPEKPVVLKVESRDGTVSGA
Protocol: as §3

NGAL [3] = target: T2, NGAL (Homo sapiens, UniProt P80188); assay: NGAL-induced profibrotic marker synthesis in human cardiac fibroblasts (western blot); type: cell-based; conditions: FIGS. 1 and 2 panel C
T2 construct: purchased R&D Systems
T2 sequence (P80188 21-198): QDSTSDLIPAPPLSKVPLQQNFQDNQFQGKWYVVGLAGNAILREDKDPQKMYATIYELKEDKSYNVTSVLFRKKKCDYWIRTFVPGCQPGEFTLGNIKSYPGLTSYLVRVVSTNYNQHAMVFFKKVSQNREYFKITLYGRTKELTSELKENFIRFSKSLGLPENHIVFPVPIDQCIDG
Protocol: (§4) Cell Culture Human cardiac fibroblasts (primary culture) were obtained from Promocell and maintained in medium (Fibroblast Media 3). Cells were cultured according to the manufacturer's instructions and used between passages 5 and 7. Cells were stimulated with aldosterone (10^-8 M, Sigma) or recombinant hNGAL (500 ng/mL, R&D Systems) for 24 h for protein analysis. Mouse kidney fibroblasts (MKF), were isolated from Wild Type (WT) mice. Briefly, mice 7 to 8 weeks were sacrificed by cervical dislocation and kidneys were cleaned and rinsed in cold DPBS (Dulbecco's Phosphate-Buffered Saline). The renal cortex was minced and incubated in Dulbecco's modified eagle medium/Nutrient mixture F-12 (DMEM/F12, Sigma) containing 1 mg/mL collagenase A (Roche) during 25 minutes at 37° C. […]
(§5) Total protein aliquots of 20 μg were prepared from cardiac homogenates and electrophoresed on SDS polyacrylamide gels and transferred to Hybond-c Extra nitrocellulose membranes (Amersham Biosciences). […] After densitometric analyses, optical density values were expressed as arbitrary units. Results are expressed as an n-fold increase over the values of the control group in densitometric arbitrary units.
(§6) The inhibitory activity of the compounds was evaluated on the NGAL-induced IL6 secretion (NGAL 10 ng/ml) in human cardiac fibroblasts. […]

[4] = test system: isolated hepatocytes from swiss mice; assay: Hepatotoxicity, MTT colorimetric assay; type: cell-based
Protocol: as §3

NGAL [5] = target: T2, NGAL; assay: NGAL-induced IL6 secretion in human cardiac fibroblasts (ELISA); type: cell-based; conditions: for Activity: NGAL-induced IL6 secretion (NGAL 10 ng/ml), Control = 1.00 ± 0.03
Protocol: (§7) Cell Culture Human cardiac fibroblasts (primary culture) were obtained from Promocell and maintained in medium (Fibroblast Media 3). Cells were cultured according to the manufacturer's instructions and used between passages 5 and 7. Cells were stimulated with aldosterone (10^-8 M, Sigma) or recombinant hNGAL (500 ng/mL, R&D Systems) for 24 h for protein analysis. Mouse kidney fibroblasts (MKF), were isolated from Wild Type (WT) mice. Briefly, mice 7 to 8 weeks were sacrificed by cervical dislocation and kidneys were cleaned and rinsed in cold DPBS (Dulbecco's Phosphate-Buffered Saline). The renal cortex was minced and incubated in Dulbecco's modified eagle medium/Nutrient mixture F-12 (DMEM/F12, Sigma) containing 1 mg/mL collagenase A (Roche) during 25 minutes at 37° C. The digestion was inactivated by adding culture medium (DMEM/F12+10% FBS) then the cell suspension was passed through a 100-μm cell strainer. After centrifugation, the pellet (containing MKF) was diluted with culture medium then plated in 75 cm^2 culture flask. After 24 hours MKF were washed with DPBS before replacement of fresh culture medium. Thereafter, culture medium was changed every 48 hours. Once 70-80% confluent, MKF were trypsinized and plated in 12 or 6-well plates. For experimental use, MKF were starved with culture medium containing only 3% FBS. MKF were treated with mNGAL (500 ng/mL, R&D Systems) for 24 h for gene expression analysis.
(§8) NGAL, IL6 and collagen type I concentrations were measured in cardiac tissue and cell supernatants, respectively, by ELISA according to the manufacturer's instructions (R&D Systems).
The inhibitory activity of the compounds was evaluated on the NGAL-induced IL6 secretion (NGAL 10 ng/ml) in human cardiac fibroblasts.
Inhibitory activities of 23 second generation compounds derived from GPZ614741 and GPZ058225 were evaluated on the NGAL-induced IL6 secretion (NGAL 10 ng/ml) in human cardiac fibroblasts.

NGAL [6] = target: T2, NGAL; assay: NGAL-induced Col 1 secretion in human cardiac fibroblasts (ELISA); type: cell-based; conditions: FIGS. 1 and 2 panel B
Protocol: as §4, with “C. The digestion was inactivated by adding culture medium (DMEM/F12+10% FBS) then the cell suspension was passed through a 100-μm cell strainer. After centrifugation, the pellet (containing MKF) was diluted with culture medium then plated in 75 cm^2 culture flask.” for “C.”
as §8, §6

[7] = test system: aldosterone-induced profibrotic marker synthesis; assay: Aldosterone-induced profibrotic marker synthesis in human cardiac fibroblasts; type: cell-based; conditions: FIGS. 1 and 2 panel D
Protocol: as §4, with “Saline).” for “Saline). The renal cortex was minced and incubated in Dulbecco's modified eagle medium/Nutrient mixture F-12 (DMEM/F12, Sigma) containing 1 mg/mL collagenase A (Roche) during 25 minutes at 37° C.”
as §5, §8, §6

hERG channel = target: T3, hERG channel (Homo sapiens, UniProt Q12809); assay: Cardiotoxicity, Predictor hERG fluorescence polarization kit; type: binding
T3 construct: purchased Thermo Fisher Scientific
T3 sequence (Q12809 whole entry): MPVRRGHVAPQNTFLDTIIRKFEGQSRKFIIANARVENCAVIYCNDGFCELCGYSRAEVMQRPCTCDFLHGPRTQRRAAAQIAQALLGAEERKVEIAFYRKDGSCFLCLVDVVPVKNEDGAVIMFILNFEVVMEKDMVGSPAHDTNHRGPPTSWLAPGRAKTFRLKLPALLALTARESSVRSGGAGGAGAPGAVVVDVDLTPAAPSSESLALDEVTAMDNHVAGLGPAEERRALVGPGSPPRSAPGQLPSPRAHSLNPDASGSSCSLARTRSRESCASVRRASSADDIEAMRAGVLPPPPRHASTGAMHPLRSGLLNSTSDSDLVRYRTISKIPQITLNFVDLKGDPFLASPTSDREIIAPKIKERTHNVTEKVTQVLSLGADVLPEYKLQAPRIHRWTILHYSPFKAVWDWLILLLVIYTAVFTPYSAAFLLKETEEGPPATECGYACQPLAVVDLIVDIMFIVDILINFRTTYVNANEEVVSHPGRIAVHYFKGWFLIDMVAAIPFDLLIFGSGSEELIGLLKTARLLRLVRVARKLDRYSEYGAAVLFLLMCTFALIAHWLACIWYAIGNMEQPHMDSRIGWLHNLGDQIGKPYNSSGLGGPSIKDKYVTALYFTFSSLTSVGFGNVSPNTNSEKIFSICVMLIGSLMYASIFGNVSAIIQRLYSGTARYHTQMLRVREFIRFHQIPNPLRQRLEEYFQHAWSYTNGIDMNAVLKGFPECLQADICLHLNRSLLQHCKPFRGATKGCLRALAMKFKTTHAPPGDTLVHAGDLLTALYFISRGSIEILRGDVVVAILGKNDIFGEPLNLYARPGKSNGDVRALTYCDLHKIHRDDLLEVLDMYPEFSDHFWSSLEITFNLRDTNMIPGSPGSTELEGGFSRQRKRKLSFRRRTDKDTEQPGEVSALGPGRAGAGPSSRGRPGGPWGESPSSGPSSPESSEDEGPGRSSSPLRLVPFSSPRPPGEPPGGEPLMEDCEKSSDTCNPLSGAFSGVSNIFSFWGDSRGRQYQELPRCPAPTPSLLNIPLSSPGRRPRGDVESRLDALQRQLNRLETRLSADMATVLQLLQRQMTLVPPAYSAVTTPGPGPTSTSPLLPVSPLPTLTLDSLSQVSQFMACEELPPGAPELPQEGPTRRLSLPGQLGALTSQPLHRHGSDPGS
Protocol: as §3

NGAL [8] = target: T2, NGAL; assay: NGAL-induced proliferation of human cardiac fibroblast cells (MTT); type: cell-based; conditions: NGAL 10 ng/ml; FIG. 3
Protocol: as §7
Cell proliferation was assessed using the MTT Proliferation Assay (Sigma).
Results are shown on FIG. 3.

Structure (SMILES): CC(C)NC[C@H](O)COc1cccc2ccccc12 (racemic) [propanolol, reference compound]
- Ratio (CaCo2 cell line; efflux ratio): 1.56

Structure (SMILES): CCS(=O)(=O)c1ccc2oc(SCc3cn4c(C)cc(C)nc4n3)nc2c1 [GPZ058225]
- Chemical Stability (Chemical stability): 92.2%
- stability to acidic pH / digestive content (Chemical stability): very stable
- Aquous solubility (Aqueous solubility): 63.46%
- solubility in aqueous buffers (solubility test) (Aqueous solubility): 63%
- microsomes degradation, left after 2 h (human microsomes; after 2 h): very stable
- Micro Stability (human microsomes; human microsomes): 100%
- efflux ratio [1]: 2.11
- permeability through the intestinal epithelia (in words) (CaCo2 cell line; compared with reference compound propranolol): quite high
- PPB (binding to plasma proteins) (human plasma protein): within acceptance range
- fraction unbound [2]: 0.109
- inhibited the enzyme activity (CYP3A4) in a competition assay (CYP3A4): 32%
- Activity (CYP3A4; human, recombinant CYP3A4 (Vivid CYP3A4 assay kit), 100 = no inhibition, read-out: CyP 3A4 Inhibition % (100 = no inhibition)): 68.1 ± 1.52%
- NGAL-induced profibrotic marker (col1, col III, fibronectin, Gal3, OPN) synthesis (NGAL [3]): inhibited
- hepatotoxicity (toxicity for hepatocytes) ([4]; MTT up to 0.1 mM): > 0.1 mM
- Hepatotoxicity ([4]; cell wrapped over two lines: No tox up / 100 uM): No tox up
- NGAL-induced IL6 secretion (NGAL [5]; NGAL 10 ng/ml, FIGS. 1 and 2 panel A): inhibited
- Col 1 secretion (NGAL-induced) (NGAL [6]): inhibited
- aldosterone-induced profibrotic marker (Col1, CT-1, or IL6) synthesis [7]: inhibited
- cardiotoxicity (hERG predictor assay) (hERG channel): did not block hERG channel
- Cardiotoxicity % (100 = no toxicity) (hERG channel; 100 = no toxicity): 101.73 ± 4.1%

Structure (SMILES): O=C(Nc1nc2cc(F)c(F)cc2s1)c1cn2cccnc2n1 [GPZ278618]
- Activity (NGAL [5]): 0.86 ± 0.02

Structure (SMILES): CC(=O)c1ccc(S(=O)(=O)Nc2ccccc2-n2cccn2)cc1 [GPZ478519]
- Activity (NGAL [5]): 0.69 ± 0.02

Structure (SMILES): CC(=O)c1cccc(S(=O)(=O)NCc2ccccc2Cn2cccn2)c1 [GPZ505884]
- Activity (NGAL [5]): 0.83 ± 0.02

Structure (SMILES): Clc1c(SCc2nc3ccccc3s2)nc2ncccn12 [GPZ564849]
- Activity (NGAL [5]): 0.85 ± 0.05

Structure (SMILES): O=S(=O)(NCc1ccccc1-n1cccn1)c1ccccc1 [GPZ595600]
- Activity (NGAL [5]): 0.92 ± 0.04

Structure (SMILES): Nc1ccc(S(=O)(=O)Nc2ccnn2-c2ccccc2)cc1 [GPZ624624, Sulfaphenazole]
- NGAL-induced proliferation of human cardiac fibroblast cells (NGAL [8]): Inhibitory effects

Structure (SMILES): CC(=O)c1cccc(S(=O)(=O)NCc2ccccc2-c2ccc(CN(C)C)cc2)c1 [GPZ642292]
- Activity (NGAL [5]): 0.64 ± 0.02

Structure (SMILES): CCN(CC)CCn1c(-c2ccccc2)noc1=N [GPZ646083, Imolamine]
- NGAL-induced proliferation of human cardiac fibroblast cells (NGAL [8]): Inhibitory effects

Structure (SMILES): CC(=O)c1ccc(S(=O)(=O)NC(=O)NC2CCCCC2)cc1 [GPZ706277, Acetohexamide]
- NGAL-induced proliferation of human cardiac fibroblast cells (NGAL [8]): Inhibitory effects

Structure (SMILES): Cc1cc(C)n2cc(CSc3nc4ccccc4[nH]3)nc2n1 [GPZ743042]
- Activity (NGAL [5]): 0.94 ± 0.03

Structure (SMILES): N#Cc1cccc(S(=O)(=O)NCc2cccc(-n3cccn3)c2)c1 [GPZ778195]
- Activity (NGAL [5]): 0.88 ± 0.04

Structure (SMILES): CC(=O)c1cccc(S(=O)(=O)NCc2ccccc2-c2ccsc2)c1 [GPZ863205]
- Activity (NGAL [5]): 0.93 ± 0.03

Structure (SMILES): CCN1CCN(Cc2ccccc2CNS(=O)(=O)c2cccc(C(C)=O)c2)CC1 [GPZ913629]
- Activity (NGAL [5]): 0.93 ± 0.02
